Laboratory results taken from patent US10222368B2 (priority 2012, dated 2019).

Key:
[1] = target: T1, human FLNA-α7nAChR complex (Homo sapiens, UniProt P21333); assay: Supplemental ELISA for FLNA-α7nAChR complex (Example 8: specificity, accuracy, precision, linearity, detection limit)
T1 construct: To determine the levels of FLNA-α7nAChR, FLNA-TLR4 and α7nAChR-Aβ42 complexes in the lymphocytes; endogenous in cells; host or cells: lymphocytes from venous blood of AD patients and control subjects (ex vivo)
Method: The following ELISA method activities were carried out to quantify FLNA-α7nAChR complex: specificity; accuracy; precision/repeatability; linearity and range; and, detection limit.
To assure ELISA assay uniquely identifies human FLNA-α7nAChR complex, the cross reactivity to human FLNA-α7nAChR complex, unrelated human proteins human leptin and human chorionic gonadotropin (hLeptin and hCG) were added to the lymphocyte lysate preparations and the ELISA assay performed.
To assure the ELISA assay returns a value that is representative of the “true” value, a range of concentrations of recombinant human leptin was spiked into lysate sample with FLNA-α7nAChR complex. Recovery percent concentrations were measured and accuracy calculated.
To assure that three measurements of a single lysate sample (e.g., sample AD#63) made in the same assay provide the same result, three samples were measured using the ELISA assay, three times on the same day using the same methods (repeatability). Within-day RSD was calculated.
To assure that the response is linear over the range of expected sample values, OD 450 of different concentrations of human FLNA-α7nAChR complex were detected using the ELISA assay. […]

KAPPA opioid receptor = KAPPA opioid receptor (Homo sapiens, UniProt P41145); settings: cited from earlier work
mu opiate receptor (MOR) = target: T2, mu opiate receptor (MOR) (Rattus norvegicus, UniProt P33535); assay: MOR agonist activity using [35S]GTPγS binding assay in striatal membranes; format: biochemical; settings: striatal membranes
T2 construct: from tissue; host or cells: striatal tissue (membrane preparation)

TLR4/FLNA = target: T3, TLR4/FLNA (Rattus norvegicus, UniProt A0A8I5ZV49); assay: Rat frontal cortical synaptosomes treated with Aβ42, anti-FLNA immunoprecipitation / Western blot; format: cell-based; settings: 1 or 10 nM compound, simultaneously or 10 min prior to 0.1 μM Aβ42; Dunnett's test
T3 construct: from tissue; host or cells: rat frontal cortical synaptosomes
Method: (§1) The complexes in the solubilized synaptosomes, and α7nAChR, TLR4 and FLNA levels in the anti-FLNA immunoprecipitates were determined by Western blotting (FIG. 15A) in which numerals outside of and to the left of the blots are as discussed before. Amounts present in the blots were quantified by densitometry (FIG. 15B). […] Structural formulas of the compounds used in this and the other figures are provided hereinafter.

α7nAChR-FLNA association = target: T4, α7nAChR-FLNA association (Rattus norvegicus, UniProt A0A8I5ZV49); assay: as above; format: cell-based; settings: 1 or 10 nM compound, simultaneously or 10 min prior to 0.1 μM Aβ42
T4 construct: from tissue; host or cells: rat frontal cortical synaptosomes
Excerpt: The α7nAChR-FLNA complexes in the solubilized synaptosomes were immunoprecipitated with immobilized anti-FLNA and the α7nAChR and FLNA levels in the anti-FLNA immunoprecipitates determined by Western blotting (FIG. 14A) and quantified by densitometry for illustrative compounds (FIG. 14B). n=3. […] The letter designation “M” that accompanies many of the “C-series” compounds is omitted from FIG. 14, the remaining figures and most discussions of the figures and compounds hereinafter for ease in expression. Structural formulas of the compounds used in this and the other figures are provided hereinafter.
as §1

T2 sequence (P33535 whole entry): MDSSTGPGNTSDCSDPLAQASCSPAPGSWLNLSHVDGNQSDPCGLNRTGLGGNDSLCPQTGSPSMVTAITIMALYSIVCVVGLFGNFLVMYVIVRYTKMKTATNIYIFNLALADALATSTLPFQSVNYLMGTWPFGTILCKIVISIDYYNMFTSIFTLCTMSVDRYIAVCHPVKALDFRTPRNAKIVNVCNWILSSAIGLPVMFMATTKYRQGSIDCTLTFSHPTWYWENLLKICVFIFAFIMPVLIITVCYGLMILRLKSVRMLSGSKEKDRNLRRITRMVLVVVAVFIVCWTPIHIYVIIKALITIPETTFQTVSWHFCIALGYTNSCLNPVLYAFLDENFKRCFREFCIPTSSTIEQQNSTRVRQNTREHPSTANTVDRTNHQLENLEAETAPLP
T1 sequence (P21333 2-2647 limits assumed, one chain of several): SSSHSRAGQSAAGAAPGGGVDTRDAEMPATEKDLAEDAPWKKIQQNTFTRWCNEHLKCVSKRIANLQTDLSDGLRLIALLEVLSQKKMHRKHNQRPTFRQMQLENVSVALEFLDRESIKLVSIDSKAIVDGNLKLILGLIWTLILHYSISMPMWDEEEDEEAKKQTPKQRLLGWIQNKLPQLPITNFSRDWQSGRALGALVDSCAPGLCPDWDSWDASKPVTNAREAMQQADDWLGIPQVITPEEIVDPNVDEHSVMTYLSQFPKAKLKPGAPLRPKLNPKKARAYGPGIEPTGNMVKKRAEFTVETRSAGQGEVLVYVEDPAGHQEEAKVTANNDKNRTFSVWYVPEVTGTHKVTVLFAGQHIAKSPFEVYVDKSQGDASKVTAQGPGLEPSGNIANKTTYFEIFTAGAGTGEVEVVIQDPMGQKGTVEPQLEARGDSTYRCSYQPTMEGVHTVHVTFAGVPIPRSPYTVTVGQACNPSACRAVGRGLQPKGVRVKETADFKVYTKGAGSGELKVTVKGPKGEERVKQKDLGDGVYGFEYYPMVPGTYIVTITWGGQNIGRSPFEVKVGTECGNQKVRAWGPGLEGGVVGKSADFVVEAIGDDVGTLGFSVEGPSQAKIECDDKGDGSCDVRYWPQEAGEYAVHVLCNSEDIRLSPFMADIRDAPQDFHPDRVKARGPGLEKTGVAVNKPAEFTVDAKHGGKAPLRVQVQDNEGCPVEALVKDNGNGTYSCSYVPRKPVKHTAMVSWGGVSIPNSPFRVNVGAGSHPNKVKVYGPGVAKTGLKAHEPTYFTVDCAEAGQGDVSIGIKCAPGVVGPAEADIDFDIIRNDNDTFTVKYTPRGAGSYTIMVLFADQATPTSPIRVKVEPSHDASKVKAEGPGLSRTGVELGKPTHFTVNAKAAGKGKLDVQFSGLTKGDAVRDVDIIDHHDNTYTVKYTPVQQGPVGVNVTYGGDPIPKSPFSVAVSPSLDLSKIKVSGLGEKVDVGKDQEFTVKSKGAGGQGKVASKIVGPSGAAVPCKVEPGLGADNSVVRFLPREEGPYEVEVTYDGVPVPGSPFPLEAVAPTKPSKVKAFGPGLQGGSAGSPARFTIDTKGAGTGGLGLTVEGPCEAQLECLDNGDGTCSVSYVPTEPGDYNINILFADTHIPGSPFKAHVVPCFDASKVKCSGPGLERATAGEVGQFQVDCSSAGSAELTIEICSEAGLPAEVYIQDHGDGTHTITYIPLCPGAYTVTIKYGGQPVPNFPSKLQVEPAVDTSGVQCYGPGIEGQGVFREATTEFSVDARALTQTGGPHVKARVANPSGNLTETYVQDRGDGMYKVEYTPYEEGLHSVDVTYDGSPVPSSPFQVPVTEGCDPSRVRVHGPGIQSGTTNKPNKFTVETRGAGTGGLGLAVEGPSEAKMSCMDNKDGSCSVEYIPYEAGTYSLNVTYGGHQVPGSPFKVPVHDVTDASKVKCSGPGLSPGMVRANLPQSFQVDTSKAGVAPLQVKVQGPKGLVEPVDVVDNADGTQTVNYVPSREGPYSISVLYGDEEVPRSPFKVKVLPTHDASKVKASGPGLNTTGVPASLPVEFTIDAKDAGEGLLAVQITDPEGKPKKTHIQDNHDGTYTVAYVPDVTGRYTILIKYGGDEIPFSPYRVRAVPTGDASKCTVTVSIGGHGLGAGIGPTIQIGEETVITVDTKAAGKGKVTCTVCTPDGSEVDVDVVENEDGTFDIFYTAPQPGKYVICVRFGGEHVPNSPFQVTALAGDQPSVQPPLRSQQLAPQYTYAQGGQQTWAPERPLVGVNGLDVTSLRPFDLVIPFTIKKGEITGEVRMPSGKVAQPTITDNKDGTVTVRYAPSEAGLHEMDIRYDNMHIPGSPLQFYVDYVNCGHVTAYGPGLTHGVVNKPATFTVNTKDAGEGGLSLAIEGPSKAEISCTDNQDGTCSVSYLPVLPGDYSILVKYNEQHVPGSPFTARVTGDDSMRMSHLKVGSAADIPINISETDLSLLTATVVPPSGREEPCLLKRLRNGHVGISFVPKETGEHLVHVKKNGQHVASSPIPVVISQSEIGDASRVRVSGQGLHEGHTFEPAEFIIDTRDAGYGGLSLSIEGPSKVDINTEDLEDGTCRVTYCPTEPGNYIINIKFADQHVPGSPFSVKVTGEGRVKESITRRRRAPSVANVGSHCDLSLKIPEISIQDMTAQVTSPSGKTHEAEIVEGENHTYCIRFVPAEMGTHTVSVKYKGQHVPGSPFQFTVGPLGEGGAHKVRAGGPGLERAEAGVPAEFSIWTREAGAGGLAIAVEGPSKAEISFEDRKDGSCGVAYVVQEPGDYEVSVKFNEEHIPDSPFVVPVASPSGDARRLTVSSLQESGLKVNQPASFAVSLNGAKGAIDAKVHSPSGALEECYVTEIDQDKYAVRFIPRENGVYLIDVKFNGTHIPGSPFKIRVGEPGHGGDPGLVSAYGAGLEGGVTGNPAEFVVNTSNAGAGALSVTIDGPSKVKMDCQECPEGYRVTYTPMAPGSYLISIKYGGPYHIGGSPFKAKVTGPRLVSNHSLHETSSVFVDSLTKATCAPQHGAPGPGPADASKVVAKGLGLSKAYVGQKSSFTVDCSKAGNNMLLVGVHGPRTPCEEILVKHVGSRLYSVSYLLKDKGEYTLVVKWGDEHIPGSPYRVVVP
Sequence of KAPPA opioid receptor (P41145 whole entry): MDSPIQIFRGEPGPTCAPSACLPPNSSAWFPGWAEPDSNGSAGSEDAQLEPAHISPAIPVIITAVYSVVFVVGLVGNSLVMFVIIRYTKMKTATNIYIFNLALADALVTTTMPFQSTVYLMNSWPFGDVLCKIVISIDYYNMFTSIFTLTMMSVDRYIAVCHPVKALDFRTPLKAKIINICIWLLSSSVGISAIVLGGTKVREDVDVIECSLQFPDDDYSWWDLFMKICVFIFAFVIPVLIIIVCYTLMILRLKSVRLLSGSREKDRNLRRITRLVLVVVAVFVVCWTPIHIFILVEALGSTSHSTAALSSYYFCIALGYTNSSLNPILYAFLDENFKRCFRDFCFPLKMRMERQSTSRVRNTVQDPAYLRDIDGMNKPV

hLeptin: unrelated human proteins human leptin and human chorionic gonadotropin (hLeptin and hCG); Human recombinant leptin
Normalized OD, Average ([1]; 5 μg protein per well instead of lymphocyte lysate): 0.02 | % Cross reactivity ([1]; 5 μg protein per well, relative to 5 μg AD#63 lysate): 4.3%

Oc1ccc2c3c1O[C@H]1c4[nH]c5c(c4C[C@@]4(O)C(C2)N(CC2CC2)CC[C@]314)C[C@@]1(O)[C@H]2Cc3ccc(O)c4c3[C@@]1(CCN2CC1CC1)[C@H]5O4 [Binaltrophimine]
Opioid receptor activity and relative potency, KAPPA (KAPPA opioid receptor): − −

O=C1CNC2(CCN(CC3CC3)CC2)N1Cc1ccccc1 [Compound C0124M]
MOR agonist activity, [35S]GTPγS binding, FLNA-binding compound as agonist at 0.1 μM (mu opiate receptor (MOR); 0.1 μM compound, Series C-2): 252.0% | MOR agonist activity, [35S]GTPγS binding, 1 μM + BFNA (mu opiate receptor (MOR); 1 μM compound + 1 μM β-FNA (MOR antagonist)): 61.4% | MOR agonist activity, [35S]GTPγS binding, FLNA-binding compound as agonist at 1 μM (mu opiate receptor (MOR); 1 μM compound, Series C-2): 305.1% | TLR4/FLNA ratio versus Aβ42 alone (in words) (TLR4/FLNA): statistically different from Aβ42 alone | Effect on Aβ42-induced α7nAChR-FLNA association (in words) (α7nAChR-FLNA association): reduce α7nAChR-FLNA association
